Measurements as given in patent publication US9695155B2, “Herbicidal substituted pyrimidinyloxy benzene compounds” (E. I. DU PONT DE NEMOURS AND COMPANY, priority 2013, dated 2017).

Legend:
velvetleaf = test: Test C postemergence; assay type: in vivo, Abutilon theophrasti
Outline: (§1)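 Injury was assessed visually against controls 13 to 15 days after application, with 0 meaning no effect and 100 full control; missing entries are shown as a dash. Preemergence sprays hit seeded loam–sand soil, postemergence sprays hit 1- to 4-leaf plants.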

barnyardgrass [1] = test: Test B flooded paddy test; assay type: in vivo, Echinochloa crus-galli; conditions: Flood, 250 g ai/ha; 0 to 100 scale where 0 is no effect and 100 is complete control
Outline: (§2)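 Scores from 0 (no effect) to 100 (complete control) are visual comparisons with controls, taken 13 to 15 days after compound was applied into floodwater 3 cm deep around 2-leaf plants.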

soybean = test: Test C postemergence; assay type: in vivo, Glycine max
Outline: as §1

giant foxtail = test: Test C preemergence; assay type: in vivo, Setaria faberii; conditions: for Foxtail, Giant plant response rating: preemergence
Outline: as §1

large (Lg) crabgrass = test: Test C postemergence; assay type: in vivo, Digitaria sanguinalis
Outline: as §1

barnyardgrass [2] = test: Test C preemergence; assay type: in vivo, Echinochloa crus-galli; conditions: for Barnyardgrass plant response rating: preemergence
Outline: as §1

barnyardgrass [3] = test: Test C postemergence; assay type: in vivo, Echinochloa crus-galli
Outline: as §1

oilseed rape [4] = test: Test C preemergence; assay type: in vivo, Brassica napus; conditions: preemergence
Outline: as §1

sedge, umbrella = test: Test B flooded paddy test; assay type: in vivo, Cyperus difformis; conditions: Flood, 250 g ai/ha; 0 to 100 scale where 0 is no effect and 100 is complete control
Outline: as §2

oilseed rape [5] = test: Test C postemergence; assay type: in vivo, Brassica napus
Outline: as §1

waterhemp = test: Test C postemergence; assay type: in vivo, Amaranthus rudis
Outline: as §1

corn = test: Test C preemergence; assay type: in vivo, Zea mays; conditions: for Corn plant response rating: preemergence
Outline: as §1

[6] = 16 g ai/ha, postemergence, 0 is no effect, 100 is complete control
[7] = 31 g ai/ha, postemergence, visual rating, scale 0 to 100 (0 no effect, 100 complete control), 13 to 15 days
[8] = 125 g ai/ha, postemergence, visual rating, scale 0 to 100 (0 no effect, 100 complete control)
[9] = Postemergence, 62 g ai/ha, scale 0 to 100 (0 no effect, 100 complete control)
[10] = 16 g ai/ha, scale 0 to 100 (0 no effect, 100 complete control)
[11] = 62 g ai/ha, scale 0 (no effect) to 100 (complete control)
[12] = 125 g ai/ha, scale 0 (no effect) to 100 (complete control)
[13] = Preemergence, 31 g ai/ha, scale 0 to 100, 0 no effect, 100 complete control

## FCc1cn(-c2c(F)cccc2Oc2ncc(Cl)cn2)nn1 [Compound 154]
velvetleaf; [6]
  Plant response rating (0 to 100), Velvetleaf: 25
velvetleaf; [7]
  Velvetleaf plant response rating: 45
velvetleaf; [8]
  Plant response rating, Velvetleaf: 80
velvetleaf; [9]
  Plant response rating, Velvetleaf: 70
Barnyardgrass [1]
  Plant response rating, Barnyardgrass: 20
soybean; [6]
  Plant response rating (0 to 100), Soybean: 40
soybean; [7]
  Soybean plant response rating: 65
soybean; [8]
  Plant response rating, Soybean: 75
soybean; [9]
  Plant response rating, Soybean: 65
Giant foxtail; [10]
  Foxtail, Giant plant response rating: 5
Giant foxtail; [11]
  Foxtail, Giant plant response rating: 85
Giant foxtail; [12]
  Foxtail, Giant plant response rating: 100
Giant foxtail; [13]
  Plant response rating, Foxtail, Giant: 70
Large (Lg) crabgrass; [6]
  Plant response rating (0 to 100), Crabgrass, Large: 5
Large (Lg) crabgrass; [7]
  Crabgrass, Large plant response rating: 10
Large (Lg) crabgrass; [8]
  Plant response rating, Crabgrass, Large: 10
Large (Lg) crabgrass; [9]
  Plant response rating, Crabgrass, Large: 10
Barnyardgrass [2]; [10]
  Barnyardgrass plant response rating: 5
Barnyardgrass [2]; [11]
  Barnyardgrass plant response rating: 70
Barnyardgrass [2]; [12]
  Barnyardgrass plant response rating: 100
Barnyardgrass [2]; [13]
  Plant response rating, Barnyardgrass: 25
Barnyardgrass [3]; [6]
  Plant response rating (0 to 100), Barnyardgrass: 5
Barnyardgrass [3]; [7]
  Barnyardgrass plant response rating: 5
Barnyardgrass [3]; [8]
  Plant response rating, Barnyardgrass: 20
Barnyardgrass [3]; [9]
  Plant response rating, Barnyardgrass: 10
Oilseed rape [4]; [10]
  Oilseed Rape plant response rating: 98
Oilseed rape [4]; [11]
  Oilseed Rape plant response rating: 100
Oilseed rape [4]; [12]
  Oilseed Rape plant response rating: 100
sedge, umbrella
  Plant response rating, Sedge, Umbrella: 30
Oilseed rape [5]; [6]
  Plant response rating (0 to 100), Oilseed Rape: 40
Oilseed rape [5]; [7]
  Oilseed Rape plant response rating: 50
Oilseed rape [5]; [8]
  Plant response rating, Oilseed Rape: 80
Oilseed rape [5]; [9]
  Plant response rating, Oilseed Rape: 50
waterhemp; [6]
  Plant response rating (0 to 100), Waterhemp: 5
waterhemp; [7]
  Waterhemp plant response rating: 60
waterhemp; [8]
  Plant response rating, Waterhemp: 70
waterhemp; [9]
  Plant response rating, Waterhemp: 65
corn; [10]
  Corn plant response rating: 5
corn; [11]
  Corn plant response rating: 5
corn; [12]
  Corn plant response rating: 10
corn; [13]
  Plant response rating, Corn: 0
